The values below are quoted from earlier work in publication PMC4123439 (Bioorganic & medicinal chemistry, 2009).

The series has as its system Tdp1. Conditions: at concentrations of up to 1 mM.

As to `COS(=O)(=O)c1ccc(C)cc1` [methyl p-toluene sulfonate], the Tdp1 inhibitory activity result is “inactive”.
